The text below walks through data of patent US12091426B2, “Bifunctional degraders of hematopoietic progenitor kinase and therapeutic uses thereof” (Nurix Therapeutics, Inc., priority 2021, dated 2024).

A value given as a limit tells only on which side of the number the result lay.

This test addresses T1, HPK1 (Homo sapiens, UniProt Q92918).
T1 construct: A HiBiT tag was introduced by CRISPR on the N terminus of HPK1 in Jurkat cells; host or cells: Jurkat cells (ATCC TIB-152), monoclonal line with CRISPR knock-in of HiBiT at the endogenous HPK1 locus
Nature of the test: HPK1 Cellular HiBit Degradation Assay. The test is classed as cell-based. To be noted: HiBiT HPK1 Jurkat cells, 24 hrs; for DC50: concentration at which 50% of HPK1 was remaining, read-out: DC50 Category; for Dmax: Jurkat, read-out: Dmax Category; for Dmax / Dmax Category: maximum degradation vs DMSO vehicle control. The essentials:
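Degraders are dosed in an 11-point series (10 uM to 0.1 nM final) onto Jurkat cells carrying an N-terminal HiBiT tag on endogenous HPK1. After 24 hrs at 37° C, lysis-based HiBiT luminescence quantifies remaining HPK1 relative to vehicle, and curve fitting gives DC50 and Dmax.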
(In general: With HiBiT, luminescence reflects the tagged protein that the partner subunit can reach.)

T1 sequence (Q92918 whole entry): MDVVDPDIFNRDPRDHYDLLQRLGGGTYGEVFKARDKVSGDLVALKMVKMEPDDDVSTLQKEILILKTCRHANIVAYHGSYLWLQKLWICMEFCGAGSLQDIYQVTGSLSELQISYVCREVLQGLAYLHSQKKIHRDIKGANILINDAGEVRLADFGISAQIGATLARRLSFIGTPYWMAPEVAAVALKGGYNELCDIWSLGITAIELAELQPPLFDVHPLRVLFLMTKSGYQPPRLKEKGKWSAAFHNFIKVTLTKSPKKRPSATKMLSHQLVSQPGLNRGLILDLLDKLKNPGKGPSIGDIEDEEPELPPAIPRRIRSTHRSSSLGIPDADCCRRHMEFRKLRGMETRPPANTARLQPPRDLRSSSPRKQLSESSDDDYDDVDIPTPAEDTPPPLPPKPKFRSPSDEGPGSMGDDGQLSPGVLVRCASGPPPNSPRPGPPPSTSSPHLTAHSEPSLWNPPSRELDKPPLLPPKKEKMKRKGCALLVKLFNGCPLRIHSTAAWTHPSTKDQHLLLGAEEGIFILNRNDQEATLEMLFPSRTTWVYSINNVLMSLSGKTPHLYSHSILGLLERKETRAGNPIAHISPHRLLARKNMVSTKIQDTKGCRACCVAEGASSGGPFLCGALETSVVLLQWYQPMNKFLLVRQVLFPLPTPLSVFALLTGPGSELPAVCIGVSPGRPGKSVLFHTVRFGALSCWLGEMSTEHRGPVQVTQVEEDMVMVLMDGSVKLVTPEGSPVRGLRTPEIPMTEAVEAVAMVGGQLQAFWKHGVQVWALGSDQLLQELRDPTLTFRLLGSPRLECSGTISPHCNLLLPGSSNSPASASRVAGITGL

As to `CC(C)n1cnc2cc(-c3ccc4c(c3)N([C@H]3C[C@@H](N5CCCCC5)C3)C(=O)C43CCN(C(=O)c4cc(C(=O)N5CCN(c6ccc7c(c6)C(=O)N(C6CCC(=O)NC6=O)C7=O)CC5)n(C)n4)CC3)nc(Nc3ccccc3F)c21` (mixture of isomers) [Example 146, 2-[(3RS)-2,6-dioxopiperidin-3-yl]-5-(4-{3-[(6-{4-[(2-fluorophenyl)amino]-3-(propan-2-yl)-3H-imidazo[4,5-c]pyridin-6-yl}-2-oxo-1-[(1S,3S)-3-(piperidin-1-yl)cyclobutyl]-1,2-dihydrospiro[indole-3,4′-piperidin]-1′-yl)carbonyl]-1-methyl-1H-pyrazole-5-carbonyl}piperazin-1-yl)-2,3-dihydro-1H-isoindole-1,3-dione], the DC50 fell in the range of 100 to 500 nM and the Dmax fell in the range of 70 to 85%.

As to `CC(C)n1cnc2cc(-c3ccc4c(c3)N([C@H]3C[C@@H](N5CCCCC5)C3)C(=O)C43CCN(C(=O)[C@]4(C)CCN(C(=O)C5CCN(c6ccc(C7CCC(=O)NC7=O)cc6F)CC5)C4)CC3)nc(NC3CC3)c21` (mixture of isomers) [Example 147, (3RS)-3-(4-{4-[(3R)-3-({6-[4-(cyclopropylamino)-3-(propan-2-yl)-3H-imidazo[4,5-c]pyridin-6-yl]-2-oxo-1-[(1S,3S)-3-(piperidin-1-yl)cyclobutyl]-1,2-dihydrospiro[indole-3,4′-piperidin]-1′-yl}carbonyl)-3-methylpyrrolidine-1-carbonyl]piperidin-1-yl}-3-fluorophenyl)piperidine-2,6-dione], the half-maximal degradation concentration (DC50) was 100 to 500 nM and the Dmax was more than 85%.

For `Cc1cc(C2CCC(=O)NC2=O)cnc1N1CCC(C(=O)N2CCC(C)(C(=O)N3CCC4(CC3)C(=O)N(C3CC(N5CCCCC5)C3)c3cc(-c5cc6ncn(C(C)C)c6c(NC6CC6)n5)ccc34)CC2)CC1` (racemic) [Example 148, (3RS)-3-(6-{4-[4-({6-[4-(cyclopropylamino)-3-(propan-2-yl)-3H-imidazo[4,5-c]pyridin-6-yl]-2-oxo-1-[(1S,3S)-3-(piperidin-1-yl)cyclobutyl]-1,2-dihydrospiro[indole-3,4′-piperidin]-1′-yl}carbonyl)-4-methylpiperidine-1-carbonyl]piperidin-1-yl}-5-Methylpyridin-3-yl)piperidine-2,6-dione], the DC50 was less than 100 nM and the “Dmax Category” value is on record as “B (B: >70%-<85%)”.

Regarding `CC(C)n1cnc2cc(-c3ccc4c(c3)N(C3CC(N5CCCCC5)C3)C(=O)C43CCN(C(=O)CC4(C)CCN(C(=O)C5CCN(c6ccc(C7CCC(=O)NC7=O)cn6)CC5)CC4)CC3)nc(NC3CC3)c21` (racemic) [Example 149, (3RS)-3-(6-{4-[4-(2-{6-[4-(cyclopropylamino)-3-(propan-2-yl)-3H-imidazo[4,5-c]pyridin-6-yl]-2-oxo-1-[(1S,3S)-3-(piperidin-1-yl)cyclobutyl]-1,2-dihydrospiro[indole-3,4′-piperidin]-1′-yl}-2-oxoethyl)-4-methylpiperidine-1-carbonyl]piperidin-1-yl}pyridin-3-yl)piperidine-2,6-dione], the DC50 is less than 100 nM and the “Dmax Category” value is “B (B: >70%-<85%)”.

As for `CC(C)n1cnc2cc(-c3ccc4c(c3)N([C@H]3C[C@@H](N5CCCCC5)C3)C(=O)C43CCN(C(=O)C4(C)CCN(C(=O)[C@H]5CC[C@H](N(C)c6ccc(C7CCC(=O)NC7=O)cc6)CC5)CC4)CC3)nc(NC3CC3)c21` (mixture of isomers) [Example 150, (3RS)-3-(4-{methyl[(1R,4R)-4-[4-({6-[4-(cyclopropylamino)-3-isopropylimidazo[4,5-c]pyridin-6-yl]-2-oxo-1-[(1S,3S)-3-(piperidin-1-yl)cyclobutyl]spiro[indole-3,4′-piperidin]-1′-yl}carbonyl)-4-methylpiperidine-1-carbonyl]cyclohexyl]amino}phenyl)piperidine-2,6-dione], the DC50 was in the range of 100 to 500 nM and the greatest degradation seen (Dmax) is 50 to 70%.

Turning to `CC(C)n1cnc2cc(-c3ccc4c(c3)N(C3CC(N5CCCCC5)C3)C(=O)C43CCN(C(=O)C4(C)CCN(C(=O)C5(C)CCN(c6ccc(C7CCC(=O)NC7=O)cn6)CC5)CC4)CC3)nc(NC3CC3)c21` (racemic) [Example 151, (3RS)-3-(6-{4-[4-({6-[4-(cyclopropylamino)-3-isopropylimidazo[4,5-c]pyridin-6-yl]-2-oxo-1-[(1S,3S)-3-(piperidin-1-yl)cyclobutyl]spiro[indole-3,4′-piperidin]-1′-yl}carbonyl)-4-methylpiperidine-1-carbonyl]-4-methylpiperidin-1-yl}pyridin-3-yl)piperidine-2,6-dione], the DC50 is less than 100 nM and the “Dmax Category” value is on record as “B (B: >70%-<85%)”.

As for `CC(C)n1cnc2cc(-c3ccc4c(c3)N([C@H]3C[C@@H](N5CCCCC5)C3)C(=O)C43CCN(C(=O)C4(C)CCN(C(=O)C5CCN(c6ccc(C7CCC(=O)NC7=O)cc6F)CC5)CC4)CC3)nc(NC3CC3)c21` (mixture of isomers) [Example 152, (3RS)-3-(4-{4-[4-({6-[4-(cyclopropylamino)-3-isopropylimidazo[4,5-c]pyridin-6-yl]-2-oxo-1-[(1S,3S)-3-(piperidin-1-yl)cyclobutyl]spiro[indole-3,4′-piperidin]-1′-yl}carbonyl)-4-methylpiperidine-1-carbonyl]piperidin-1-yl}-3-Fluorophenyl)piperidine-2,6-dione], the DC50 was less than 100 nM and the Dmax was in the range of 70 to 85%.

Regarding `Cc1cc(C2CCC(=O)NC2=O)ccc1O[C@H]1CC[C@H](C(=O)N2CCC(C)(C(=O)N3CCC4(CC3)C(=O)N([C@H]3C[C@@H](N5CCCCC5)C3)c3cc(-c5cc6ncn(C(C)C)c6c(NC6CC6)n5)ccc34)CC2)CC1` (mixture of isomers) [Example 156, (3RS)-3-(3-methyl-4-{[(1R,4R)-4-[4-({6-[4-(cyclopropylamino)-3-isopropylimidazo[4,5-c]pyridin-6-yl]-2-oxo-1-[(1S,3S)-3-(piperidin-1-yl)cyclobutyl]spiro[indole-3,4′-piperidin]-1′-yl}carbonyl)-4-methylpiperidine-1-carbonyl]cyclohexyl]oxy}phenyl)piperidine-2,6-dione], the DC50 is 100 to 500 nM and the greatest degradation seen (Dmax) is more than 85%.

Turning to `Cc1nc(N2CCC(C(=O)N3CCC(C)(C(=O)N4CCC5(CC4)C(=O)N([C@H]4C[C@@H](N6CCCCC6)C4)c4cc(-c6cc7ncn(C(C)C)c7c(Nc7ccccc7F)n6)ccc45)CC3)CC2)ccc1C1CCC(=O)NC1=O` (mixture of isomers) [Example 157, (3RS)-3-[6-(4-{4-[(6-{4-[(2-fluorophenyl)amino]-3-(propan-2-yl)-3H-imidazo[4,5-c]pyridin-6-yl}-2-oxo-1-[(1S,3S)-3-(piperidin-1-yl)cyclobutyl]-1,2-dihydrospiro[indole-3,4′-piperidin]-1′-yl)carbonyl]-4-methylpiperidine-1-carbonyl}piperidin-1-yl)-2-Methylpyridin-3-yl]piperidine-2,6-dione], the half-maximal degradation concentration (DC50) fell in the range of 100 to 500 nM and the maximal degradation (Dmax) lay within 70 to 85%.

As for `CC(C)n1cnc2cc(-c3ccc4c(c3)N([C@H]3C[C@@H](N5CCCCC5)C3)C(=O)C43CCN(S(=O)(=O)C4CCN(C(=O)C5CCN(c6ccc(C7CCC(=O)NC7=O)cn6)CC5)CC4)CC3)nc(NC3CC3)c21` (mixture of isomers) [Example 159, (3RS)-3-(6-{4-[4-({6-[4-(cyclopropylamino)-3-(propan-2-yl)-3H-imidazo[4,5-c]pyridin-6-yl]-2-oxo-1-[(1S,3S)-3-(piperidin-1-yl)cyclobutyl]-1,2-dihydrospiro[indole-3,4′-piperidin]-1′-yl}sulfonyl)piperidine-1-carbonyl]piperidin-1-yl}pyridin-3-yl)piperidine-2,6-dione], the half-maximal degradation concentration (DC50) was less than 100 nM and the maximal degradation (Dmax) is more than 85%.

As for `CC(C)n1cnc2cc(-c3ccc4c(c3)N([C@H]3C[C@@H](N5CCCCC5)C3)C(=O)C43CCN(C(=O)C4CCN(S(=O)(=O)C5CCN(c6ccc(C7CCC(=O)NC7=O)cn6)CC5)CC4)CC3)nc(NC3CC3)c21` (mixture of isomers) [Example 160, (3RS)-3-[6-(4-{[4-({6-[4-(cyclopropylamino)-3-(propan-2-yl)-3H-imidazo[4,5-c]pyridin-6-yl]-2-oxo-1-[(1S,3S)-3-(piperidin-1-yl)cyclobutyl]-1,2-dihydrospiro[indole-3,4′-piperidin]-1′-yl}carbonyl)piperidin-1-yl]sulfonyl}piperidin-1-yl)pyridin-3-yl]piperidine-2,6-dione], the 50% degradation concentration (DC50) is less than 100 nM and the Dmax is more than 85%.

As for `CC(C)n1cnc2cc(-c3ccc4c(c3)N([C@H]3C[C@@H](N5CCCCC5)C3)C(=O)C43CCN(C(=O)CC4CCN(C(=O)C5CCN(c6ccc(C7CCC(=O)NC7=O)cn6)CC5)CC4)CC3)nc(NC3CC3)c21` (mixture of isomers) [Example 162, (3RS)-3-(6-{4-[4-(2-{6-[4-(cyclopropylamino)-3-(propan-2-yl)-3H-imidazo[4,5-c]pyridin-6-yl]-2-oxo-1-[(1S,3S)-3-(piperidin-1-yl)cyclobutyl]-1,2-dihydrospiro[indole-3,4′-piperidin]-1′-yl}-2-oxoethyl)piperidine-1-carbonyl]piperidin-1-yl}pyridin-3-yl)piperidine-2,6-dione], the DC50 is less than 100 nM and the greatest degradation seen (Dmax) fell in the range of 70 to 85%.

As to `CC(C)n1cnc2cc(-c3ccc4c(c3)N([C@H]3C[C@@H](N5CCCCC5)C3)C(=O)C43CCN(C(=O)[C@]4(C)CCN(C(=O)C5CCN(c6ccc(C7CCC(=O)NC7=O)c(F)c6)CC5)C4)CC3)nc(NC3CC3)c21` (mixture of isomers) [Example 185, (3RS)-3-(4-{4-[(3R)-3-({6-[4-(cyclopropylamino)-3-(propan-2-yl)-3H-imidazo[4,5-c]pyridin-6-yl]-2-oxo-1-[(1S,3S)-3-(piperidin-1-yl)cyclobutyl]-1,2-dihydrospiro[indole-3,4′-piperidin]-1′-yl}carbonyl)-3-methylpyrrolidine-1-carbonyl]piperidin-1-yl}-2-fluorophenyl)piperidine-2,6-dione], the DC50 lay within 100 to 500 nM and the Dmax was in the range of 70 to 85%.

As usually defined, the DC50 is the concentration at which degradation of the target reaches its halfway point. What is called Dmax is the greatest extent of degradation seen.
